# Data reported in ChEMBL document CHEMBL2169738, “Rational design of a low molecular weight, stable, potent, and long-lasting GPR103 aza-β3-pseudopeptide agonist” (J Med Chem, 2012).
# Calls of active or inactive are those of the source. The calls are words filed in the database; no cut-off is given here. Numbered stars: 1 amine (or outer) side, 2 acyl side, 3 side chain; on linkers, the order of the positions; unused ones are H or OH. Square brackets hold non-standard residues; d marks the D form. Peptide text beside a SMILES is read from it. * marks the point of attachment. Acetyl(2-(piperazin-1-yl)) = O=C(CN1CCNCC1)*; azaβ3hArg = N=C(N)NCCCN(CC(=O)[*:2])N[*:1]; Hydrazinoacetyl = O=C(CNN[*:1])[*:2]; X5 = O=C(CN(Cc1ccccc1)N[*:1])[*:2]; X9 = O=C(CN(CC1CCCCC1)N[*:1])[*:2]; X1 = O=C(CN(CC(O)CO)N[*:1])[*:2]; X3 = CCCCN(CC(=O)[*:2])N[*:1]; X4 = CCCN(CC(=O)[*:2])N[*:1]; X6 = O=C(CN(CCO)N[*:1])[*:2]; X2 = NC(=O)CN(Cc1ccccc1)N*; X8 = CN(CC(=O)[*:2])N[*:1]; X7 = O=C(CN1CCCN1)*
# What was measured:
# [1] = target: T1, Pyroglutamylated RF-amide peptide receptor (Homo sapiens, UniProt Q96P65); experiment: Agonist activity at human GPR103 expressed in CHO cells co-expressing Galpha16 assessed as increase in intracellular calcium level measured for 2 mins by fluorimetry; type: functional, cell-based
# T1 sequence (Q96P65 whole entry): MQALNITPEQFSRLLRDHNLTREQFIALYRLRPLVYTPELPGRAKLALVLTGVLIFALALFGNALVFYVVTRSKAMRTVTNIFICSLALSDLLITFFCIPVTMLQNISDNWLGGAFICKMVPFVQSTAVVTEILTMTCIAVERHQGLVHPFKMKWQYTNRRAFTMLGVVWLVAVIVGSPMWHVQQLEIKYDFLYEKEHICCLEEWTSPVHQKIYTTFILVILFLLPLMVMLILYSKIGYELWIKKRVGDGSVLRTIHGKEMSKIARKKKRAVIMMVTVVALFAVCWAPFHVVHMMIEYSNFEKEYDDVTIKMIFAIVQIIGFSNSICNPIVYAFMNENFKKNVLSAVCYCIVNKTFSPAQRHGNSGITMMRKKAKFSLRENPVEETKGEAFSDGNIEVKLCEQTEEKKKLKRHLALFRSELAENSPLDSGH
# [2] = target: T1, Pyroglutamylated RF-amide peptide receptor; experiment: Antagonist activity at human GPR103 expressed in CHO cells co-expressing Galpha16 assessed as inhibition of human 26RFa-induced increase in intracellular calcium level by fluorimetry; type: functional, cell-based
# Mus musculus [3] = experiment: Orexigenic effect in Swiss albino CD1 mouse at 0.012 to 1.2 nmol, icv after 30 mins; type: functional, organism-based
# Mus musculus [4] = experiment: Orexigenic effect in icv dosed Swiss albino CD1 mouse assessed as cumulative food intake measured after 2 hrs; type: functional
# [5] = target: T1, Pyroglutamylated RF-amide peptide receptor; experiment: Displacement of [125I]26RFa from human GPR103 expressed in HEK293 cells incubated for 1 h by gamma counter based method; type: cell-based
# Mus musculus [6] = experiment: Orexigenic effect in Swiss albino CD1 mouse at 0.012 to 1.2 nmol, icv measured for 30 mins; type: functional, organism-based
# [7] = Half life in human serum by RP-HPLC; type: ADME, cell-free
# Mus musculus [8] = experiment: Orexigenic effect in Swiss albino CD1 mouse at 1.2 nmol, icv measured after every 30 mins for 60 to 90 mins; type: functional, organism-based
# Serum [9] = experiment: Compound degradation in human serum assessed as breakdown of N-terminal region incubated for 15 mins by RP-HPLC; type: ADME, cell-free; settings: 0.25 h
# Mus musculus [10] = experiment: Orexigenic effect in Swiss albino CD1 mouse at 1.2 nmol, icv measured after every 30 mins for 90 to 120 mins; type: functional, organism-based
# Serum [11] = experiment: Compound degradation in human serum assessed as breakdown of N-terminal region incubated for 2 mins by RP-HPLC; type: ADME, cell-free
# Serum [12] = experiment: Ratio of t1/2 of compound to t1/2 of 26RFa in human serum by RP-HPLC; type: ADME, cell-free
# Mus musculus [13] = experiment: Orexigenic effect in icv dosed Swiss albino CD1 mouse measured after every 30 mins; type: functional, organism-based
smiles,measurement,setting,value
NCC(=O)NCC(=O)N[C@@H](Cc1ccccc1)C(=O)N[C@@H](CO)C(=O)N[C@@H](Cc1ccccc1)C(=O)N[C@@H](CCCN=C(N)N)C(=O)NN(CC(N)=O)Cc1ccccc1 (H-GGFSFR-X2),EC50,[1],> 10000 nM
same,IC50,[2],> 10000 nM
N=C(N)NCCC[C@H](NC(=O)[C@H](Cc1ccccc1)NC(=O)[C@H](CO)NC(=O)[C@H](Cc1ccccc1)NC(=O)CNC(=O)CN)C(=O)N[C@@H](Cc1ccccc1)C(N)=O (H-GGFSFRF-NH2),Activity,Mus musculus [3],inactive
same,Activity,Mus musculus [4],1833 mg
same,IC50,[5],8730 nM
same,Activity,Mus musculus [6],Active
same,half-life,[7],11.2 min
same,Activity,Mus musculus [8],Active
NCC(=O)NCC(=O)N[C@@H](Cc1ccccc1)C(=O)N[C@@H](CO)C(=O)N[C@@H](Cc1ccccc1)C(=O)NN(CCCN=C(N)N)CC(=O)N[C@@H](Cc1ccccc1)C(N)=O (H-GGFSF[azaβ3hArg]F-NH2),EC50,[1],> 10000 nM
same,IC50,[2],> 10000 nM
NCC(=O)NCC(=O)N[C@@H](Cc1ccccc1)C(=O)N[C@@H](CO)C(=O)NN(CC(=O)N[C@@H](CCCN=C(N)N)C(=O)N[C@@H](Cc1ccccc1)C(N)=O)Cc1ccccc1 (H-GGFS[X5]RF-NH2),EC50,[1],> 10000 nM
same,IC50,[2],> 10000 nM
NCC(=O)NCC(=O)N[C@@H](Cc1ccccc1)C(=O)NN(CC(=O)N[C@@H](Cc1ccccc1)C(=O)N[C@@H](CCCN=C(N)N)C(=O)N[C@@H](Cc1ccccc1)C(N)=O)CC(O)CO (some centres not stated) (H-GGF[X1]FRF-NH2),EC50,[1],341 nM
CCCCN(CC(=O)N[C@@H](Cc1ccccc1)C(=O)N[C@@H](CCCNC(=N)N)C(=O)N[C@@H](Cc1ccccc1)C(N)=O)NC(=O)[C@H](Cc1ccccc1)NC(=O)CNC(=O)CN (H-GGF[X3]FRF-NH2),EC50,[1],29800 nM
CCCN(CC(=O)N[C@@H](Cc1ccccc1)C(=O)N[C@@H](CCCN=C(N)N)C(=O)N[C@@H](Cc1ccccc1)C(N)=O)NC(=O)[C@H](Cc1ccccc1)NC(=O)CNC(=O)CN (H-GGF[X4]FRF-NH2),EC50,[1],> 10000 nM
same,IC50,[2],> 10000 nM
N=C(N)NCCC[C@H](NC(=O)[C@H](Cc1ccccc1)NC(=O)CN(CCO)NC(=O)[C@H](Cc1ccccc1)NC(=O)CNC(=O)CN)C(=O)N[C@@H](Cc1ccccc1)C(N)=O (H-GGF[X6]FRF-NH2),EC50,[1],1090 nM
CN(CC(=O)N[C@@H](Cc1ccccc1)C(=O)N[C@@H](CCCN=C(N)N)C(=O)N[C@@H](Cc1ccccc1)C(N)=O)NC(=O)[C@H](Cc1ccccc1)NC(=O)CNC(=O)CN (H-GGF[X8]FRF-NH2),EC50,[1],1100 nM
NCC(=O)NCC(=O)N[C@@H](Cc1ccccc1)C(=O)NN(CC(=O)N[C@@H](Cc1ccccc1)C(=O)N[C@@H](CCCN=C(N)N)C(=O)N[C@@H](Cc1ccccc1)C(N)=O)CC1CCCCC1 (H-GGF[X9]FRF-NH2),EC50,[1],1370 nM
NCC(=O)NCC(=O)NN(CC(=O)N[C@@H](CO)C(=O)N[C@@H](Cc1ccccc1)C(=O)N[C@@H](CCCN=C(N)N)C(=O)N[C@@H](Cc1ccccc1)C(N)=O)Cc1ccccc1 (H-GG[X5]SFRF-NH2),EC50,[1],2340 nM
N=C(N)NCCC[C@H](NC(=O)[C@H](Cc1ccccc1)NC(=O)[C@H](CO)NC(=O)[C@H](Cc1ccccc1)NC(=O)CNNC(=O)CN)C(=O)N[C@@H](Cc1ccccc1)C(N)=O (H-G[Hydrazinoacetyl]FSFRF-NH2),IC50,[5],2990 nM
same,EC50,[1],136 nM
CC(C)C[C@H](NC(=O)[C@H](CC(N)=O)NC(=O)CNC(=O)[C@H](CC(C)C)NC(=O)[C@@H]1CCCN1C(=O)CNC(=O)[C@H](CO)NC(=O)[C@@H](N)[C@@H](C)O)C(=O)N[C@@H](C)C(=O)N[C@@H](CCC(=O)O)C(=O)N[C@@H](CCC(=O)O)C(=O)N[C@@H](CC(C)C)C(=O)N[C@@H](CC(N)=O)C(=O)NCC(=O)N[C@@H](Cc1ccc(O)cc1)C(=O)N[C@@H](CO)C(=O)N[C@@H](CCCNC(=N)N)C(=O)N[C@@H](CCCCN)C(=O)N[C@@H](CCCCN)C(=O)NCC(=O)NCC(=O)N[C@@H](Cc1ccccc1)C(=O)N[C@@H](CO)C(=O)N[C@@H](Cc1ccccc1)C(=O)N[C@@H](CCCNC(=N)N)C(=O)N[C@@H](Cc1ccccc1)C(N)=O (H-TSGPLGNLAEELNGYSRKKGGFSFRF-NH2),IC50,[5],1.26 nM
same,half-life,[7],6.9 min
N=C(N)NCCC[C@H](NC(=O)[C@H](Cc1ccccc1)NC(=O)[C@H](CO)NC(=O)[C@H](Cc1ccccc1)NC(=O)CNC(=O)CNN)C(=O)N[C@@H](Cc1ccccc1)C(N)=O (Hydrazinoacetyl-GFSFRF-NH2),EC50,[1],429 nM
N=C(N)NCCC[C@H](NC(=O)[C@H](Cc1ccccc1)NC(=O)CN(CC(O)CO)NC(=O)[C@H](Cc1ccccc1)NC(=O)CN1CCCN1)C(=O)N[C@@H](Cc1ccccc1)C(N)=O (some centres not stated) (X7-F[X1]FRF-NH2),EC50,[1],382 nM
NC(=O)[C@H](Cc1ccccc1)NC(=O)[C@H](CCCN=C(N)N)NC(=O)[C@H](Cc1ccccc1)NC(=O)[C@H](CO)NC(=O)[C@H](Cc1ccccc1)NC(=O)CN1CCNCC1 ({Acetyl(2-(piperazin-1-yl))}-FSFRF-NH2),EC50,[1],138 nM
N=C(N)NCCC[C@H](NC(=O)[C@H](Cc1ccccc1)NC(=O)CN(CC(O)CO)NC(=O)[C@H](Cc1ccccc1)NC(=O)CN1CCNCC1)C(=O)N[C@@H](Cc1ccccc1)C(N)=O (some centres not stated) ({Acetyl(2-(piperazin-1-yl))}-F[X1]FRF-NH2),Activity,Mus musculus [4],1873 mg
same,IC50,[5],1990 nM
same,Stability,Serum [9],Stable
same,Activity,Mus musculus [10],Active
same,Stability,Serum [11],Stable
same,EC50,[1],93.6 nM
same,half-life,[7],35.6 min
same,Ratio,Serum [12],5
same,Activity,Mus musculus [13],Dose-dependent effect
CCCN(CC(=O)N[C@@H](Cc1ccccc1)C(=O)N[C@@H](CCCNC(=N)N)C(=O)N[C@@H](Cc1ccccc1)C(N)=O)NC(=O)[C@H](Cc1ccccc1)NC(=O)CN1CCNCC1 ({Acetyl(2-(piperazin-1-yl))}-F[X4]FRF-NH2),EC50,[1],164 nM
